Results published in ChEMBL document CHEMBL5210307, “Affinity Biochemical Literature for EUbOPEN Chemogenomics Library wave 3” (2023).
Each block holds one compound with its values, some of them ahead of it.

Tests used:
[1] = molecular target: Protein farnesyltransferase subunit beta (Homo sapiens, UniProt P49356); test: Affinity Biochemical interaction (Scintillation proximity assay (SPA)) EUB0000289c FNTB; parameters: mode of action Inhibitor, recommended concentration 1 uM
[2] = molecular target: T1, Histone acetyltransferase p300 (Homo sapiens, UniProt Q09472)
T1 sequence (Q09472 whole entry): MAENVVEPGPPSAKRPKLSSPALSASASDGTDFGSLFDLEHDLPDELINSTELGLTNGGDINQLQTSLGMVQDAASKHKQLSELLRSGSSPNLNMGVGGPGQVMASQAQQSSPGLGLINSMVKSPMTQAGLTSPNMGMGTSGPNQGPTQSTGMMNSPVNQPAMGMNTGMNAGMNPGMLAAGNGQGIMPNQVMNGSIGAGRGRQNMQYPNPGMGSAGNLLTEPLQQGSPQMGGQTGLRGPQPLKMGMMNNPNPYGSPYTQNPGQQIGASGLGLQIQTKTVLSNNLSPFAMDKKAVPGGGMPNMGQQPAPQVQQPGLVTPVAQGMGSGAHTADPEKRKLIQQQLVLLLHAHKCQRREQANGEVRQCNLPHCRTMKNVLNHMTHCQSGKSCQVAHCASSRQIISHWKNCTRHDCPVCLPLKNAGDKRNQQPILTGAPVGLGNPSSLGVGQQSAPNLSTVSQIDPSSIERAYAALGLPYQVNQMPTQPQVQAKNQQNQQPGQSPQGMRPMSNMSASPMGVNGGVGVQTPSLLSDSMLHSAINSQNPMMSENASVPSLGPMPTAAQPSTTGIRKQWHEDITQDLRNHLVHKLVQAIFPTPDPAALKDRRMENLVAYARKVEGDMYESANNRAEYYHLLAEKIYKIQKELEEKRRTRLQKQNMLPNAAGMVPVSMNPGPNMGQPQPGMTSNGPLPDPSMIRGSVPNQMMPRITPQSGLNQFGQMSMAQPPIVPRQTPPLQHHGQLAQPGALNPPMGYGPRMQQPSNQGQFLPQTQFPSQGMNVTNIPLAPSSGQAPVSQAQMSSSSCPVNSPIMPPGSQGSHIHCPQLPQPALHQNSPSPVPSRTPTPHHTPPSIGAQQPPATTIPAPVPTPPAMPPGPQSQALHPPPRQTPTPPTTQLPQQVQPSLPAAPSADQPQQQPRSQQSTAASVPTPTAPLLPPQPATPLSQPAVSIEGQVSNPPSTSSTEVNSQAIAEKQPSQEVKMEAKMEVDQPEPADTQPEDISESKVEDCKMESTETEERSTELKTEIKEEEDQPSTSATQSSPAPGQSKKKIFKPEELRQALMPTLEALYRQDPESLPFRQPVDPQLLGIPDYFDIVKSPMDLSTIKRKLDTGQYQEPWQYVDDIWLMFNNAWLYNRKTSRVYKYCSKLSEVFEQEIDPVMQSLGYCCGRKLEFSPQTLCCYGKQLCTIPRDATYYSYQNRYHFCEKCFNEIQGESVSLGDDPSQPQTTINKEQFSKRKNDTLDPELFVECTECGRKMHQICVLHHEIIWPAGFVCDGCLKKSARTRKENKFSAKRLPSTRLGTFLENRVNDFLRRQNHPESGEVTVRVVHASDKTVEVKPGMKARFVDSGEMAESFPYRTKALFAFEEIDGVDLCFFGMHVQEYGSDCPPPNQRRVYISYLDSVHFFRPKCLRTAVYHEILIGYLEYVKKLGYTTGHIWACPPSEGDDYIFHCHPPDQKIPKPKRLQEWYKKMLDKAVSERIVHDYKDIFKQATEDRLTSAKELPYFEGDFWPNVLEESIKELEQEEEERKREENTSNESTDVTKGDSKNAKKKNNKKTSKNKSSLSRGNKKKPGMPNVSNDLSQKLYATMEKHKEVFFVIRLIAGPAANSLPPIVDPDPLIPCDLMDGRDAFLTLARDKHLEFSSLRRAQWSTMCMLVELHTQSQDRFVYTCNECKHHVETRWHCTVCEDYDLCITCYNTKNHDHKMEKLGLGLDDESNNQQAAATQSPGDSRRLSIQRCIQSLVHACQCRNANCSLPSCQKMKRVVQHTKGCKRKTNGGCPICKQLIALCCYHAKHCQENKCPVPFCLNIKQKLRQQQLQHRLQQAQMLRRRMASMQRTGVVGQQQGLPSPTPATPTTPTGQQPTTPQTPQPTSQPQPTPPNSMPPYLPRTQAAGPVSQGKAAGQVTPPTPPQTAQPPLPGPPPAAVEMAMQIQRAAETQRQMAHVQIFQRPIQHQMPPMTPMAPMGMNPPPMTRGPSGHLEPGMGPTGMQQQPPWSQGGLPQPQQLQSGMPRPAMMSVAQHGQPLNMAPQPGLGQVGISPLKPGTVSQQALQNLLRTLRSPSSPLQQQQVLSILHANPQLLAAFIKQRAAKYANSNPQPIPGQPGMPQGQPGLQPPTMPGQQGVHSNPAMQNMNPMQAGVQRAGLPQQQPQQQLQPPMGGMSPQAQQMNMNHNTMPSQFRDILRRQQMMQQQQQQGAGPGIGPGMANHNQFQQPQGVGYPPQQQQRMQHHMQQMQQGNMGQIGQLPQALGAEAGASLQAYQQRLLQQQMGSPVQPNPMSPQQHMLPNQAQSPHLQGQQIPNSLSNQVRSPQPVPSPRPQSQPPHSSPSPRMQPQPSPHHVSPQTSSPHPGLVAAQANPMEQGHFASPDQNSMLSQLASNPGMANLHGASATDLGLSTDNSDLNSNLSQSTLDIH

[3] = molecular target: Cannabinoid receptor 1 (Homo sapiens, UniProt P21554); test: Affinity Biochemical interaction (Radioligand binding assay (CNR1, inverse agonism)) EUB0000316b CNR1; parameters: mode of action Negative control for MRL-650, recommended concentration 1 uM
[4] = molecular target: Dual specificity protein kinase CLK2 (Homo sapiens, UniProt P49760); test: Affinity Biochemical interaction (NanoBRET assay (in HEK293T cells)) EUB0000009b CLK2; type: cell-based; parameters: mode of action Negative control for MU1210, recommended concentration 1 uM
[5] = molecular target: Dual specificity protein kinase CLK1 (Homo sapiens, UniProt P49759); test: Affinity Biochemical interaction (NanoBRET assay (in HEK293T cells)) EUB0000009b CLK1; type: cell-based; parameters: mode of action Negative control for MU1210, recommended concentration 1 uM
[6] = molecular target: Dual specificity protein kinase CLK4 (Homo sapiens, UniProt Q9HAZ1); test: Affinity Biochemical interaction (NanoBRET assay (in HEK293T cells)) EUB0000009b CLK4; type: cell-based; parameters: mode of action Negative control for MU1210, recommended concentration 1 uM
Chain of Dual specificity protein kinase CLK4 (Q9HAZ1 whole entry): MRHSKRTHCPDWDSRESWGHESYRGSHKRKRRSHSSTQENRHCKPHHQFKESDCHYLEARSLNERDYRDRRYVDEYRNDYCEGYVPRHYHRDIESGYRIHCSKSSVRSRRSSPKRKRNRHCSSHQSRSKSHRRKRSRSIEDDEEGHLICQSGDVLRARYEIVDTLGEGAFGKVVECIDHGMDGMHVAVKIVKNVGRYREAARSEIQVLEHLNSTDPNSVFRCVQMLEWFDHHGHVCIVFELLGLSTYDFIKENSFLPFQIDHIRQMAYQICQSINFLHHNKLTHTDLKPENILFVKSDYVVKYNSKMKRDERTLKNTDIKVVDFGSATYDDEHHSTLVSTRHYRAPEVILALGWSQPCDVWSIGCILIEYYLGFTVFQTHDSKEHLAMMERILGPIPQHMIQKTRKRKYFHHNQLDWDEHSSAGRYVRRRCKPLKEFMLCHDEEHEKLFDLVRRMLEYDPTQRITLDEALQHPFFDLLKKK

[7] = molecular target: Calcium/calmodulin-dependent protein kinase kinase 2 (Homo sapiens, UniProt Q96RR4); test: Affinity Biochemical interaction (Enzymatic activity assay) EUB0000168b CAMKK2; parameters: mode of action Negative control for SGC-CAMKK2-1 (UNC-YL-36), recommended concentration 1 uM
[8] = molecular target: Oxidized purine nucleoside triphosphate hydrolase (Homo sapiens, UniProt P36639); test: Affinity Biochemical interaction (PPiLight Biochemical Assay (full-length human NUDT1)) EUB0000587a NUDT1
[9] = molecular target: Bifunctional epoxide hydrolase 2 (Homo sapiens, UniProt P34913); test: Affinity Biochemical interaction (Human soluble epoxide hydrolase inhibition) EUB0000541a EPHX2; parameters: mode of action Negative control for BI-1935, recommended concentration 100 nM
Chain of Bifunctional epoxide hydrolase 2 (P34913 whole entry): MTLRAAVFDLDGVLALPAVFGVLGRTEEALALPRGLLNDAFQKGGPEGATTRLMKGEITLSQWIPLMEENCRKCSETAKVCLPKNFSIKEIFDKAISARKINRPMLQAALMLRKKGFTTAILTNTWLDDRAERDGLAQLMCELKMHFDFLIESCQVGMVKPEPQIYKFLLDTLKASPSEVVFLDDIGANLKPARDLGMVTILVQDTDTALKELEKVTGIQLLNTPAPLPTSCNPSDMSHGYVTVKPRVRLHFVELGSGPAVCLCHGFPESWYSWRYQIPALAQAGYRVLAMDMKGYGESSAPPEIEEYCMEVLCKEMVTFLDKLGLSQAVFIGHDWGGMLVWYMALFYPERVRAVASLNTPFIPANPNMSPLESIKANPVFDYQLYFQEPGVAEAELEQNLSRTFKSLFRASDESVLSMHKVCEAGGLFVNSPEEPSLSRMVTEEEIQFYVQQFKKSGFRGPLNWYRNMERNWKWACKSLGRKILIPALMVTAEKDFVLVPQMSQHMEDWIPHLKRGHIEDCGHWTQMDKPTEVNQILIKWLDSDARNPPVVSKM

[10] = molecular target: Alpha-1D adrenergic receptor (Homo sapiens, UniProt P25100); test: Affinity Biochemical interaction (Binding assay) EUB0000300bCl ADRA1D; parameters: mode of action Antagonist, recommended concentration 1 uM
Chain of Alpha-1D adrenergic receptor (P25100 whole entry): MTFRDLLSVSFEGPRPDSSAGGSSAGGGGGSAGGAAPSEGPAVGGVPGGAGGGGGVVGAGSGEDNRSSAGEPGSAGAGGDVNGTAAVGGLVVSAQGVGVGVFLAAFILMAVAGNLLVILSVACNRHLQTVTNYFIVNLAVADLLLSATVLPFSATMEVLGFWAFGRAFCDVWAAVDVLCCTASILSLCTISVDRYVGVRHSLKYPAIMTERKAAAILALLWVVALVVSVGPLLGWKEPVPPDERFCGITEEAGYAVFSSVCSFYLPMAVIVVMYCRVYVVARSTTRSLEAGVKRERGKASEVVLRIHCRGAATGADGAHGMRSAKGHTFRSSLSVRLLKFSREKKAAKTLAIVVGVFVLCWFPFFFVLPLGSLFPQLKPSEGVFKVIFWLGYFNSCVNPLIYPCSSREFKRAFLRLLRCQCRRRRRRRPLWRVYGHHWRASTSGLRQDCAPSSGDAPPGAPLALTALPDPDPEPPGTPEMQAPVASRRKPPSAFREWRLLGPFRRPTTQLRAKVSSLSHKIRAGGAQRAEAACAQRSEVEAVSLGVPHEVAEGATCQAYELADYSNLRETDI

[11] = molecular target: Hepatocyte growth factor receptor (Homo sapiens, UniProt P08581); test: Affinity Biochemical interaction (Homogeneous Time Resolved Fluorescence Assay) EUB0000293b MET; parameters: mode of action Inhibitor, recommended concentration 1 uM
[12] = molecular target: T1, Histone acetyltransferase p300; test: Affinity Biochemical interaction (TR-FRET assay (BHC domains)) EUB0000326a EP300
[13] = molecular target: NT-3 growth factor receptor (Homo sapiens, UniProt Q16288); test: Affinity Biochemical interaction (Radiometric assay (10 µM ATP, Reaction Biology)) EUB0000156b NTRK3; parameters: mode of action Negative control for DDR-TRK-1 (D2202-1), recommended concentration 1 uM
[14] = molecular target: Epithelial discoidin domain-containing receptor 1 (Homo sapiens, UniProt Q08345); test: Affinity Biochemical interaction (Radiometric assay (10 µM ATP, Reaction Biology)) EUB0000156b DDR1; parameters: mode of action Negative control for DDR-TRK-1 (D2202-1), recommended concentration 1 uM
[15] = molecular target: Discoidin domain-containing receptor 2 (Homo sapiens, UniProt Q16832); test: Affinity Biochemical interaction (Radiometric assay (10 µM ATP, Reaction Biology)) EUB0000156b DDR2; parameters: mode of action Negative control for DDR-TRK-1 (D2202-1), recommended concentration 1 uM
[16] = molecular target: High affinity nerve growth factor receptor (Homo sapiens, UniProt P04629); test: Affinity Biochemical interaction (Radiometric assay (10 µM ATP, Reaction Biology)) EUB0000156b NTRK1; parameters: mode of action Negative control for DDR-TRK-1 (D2202-1), recommended concentration 1 uM
[17] = molecular target: Methionine aminopeptidase 2 (Homo sapiens, UniProt P50579); test: Affinity Biochemical interaction (Biochemical activity assay (addition of Mn)) EUB0000303b METAP2; parameters: mode of action Inhibitor, recommended concentration 1 uM
Chain of Methionine aminopeptidase 2 (P50579 whole entry): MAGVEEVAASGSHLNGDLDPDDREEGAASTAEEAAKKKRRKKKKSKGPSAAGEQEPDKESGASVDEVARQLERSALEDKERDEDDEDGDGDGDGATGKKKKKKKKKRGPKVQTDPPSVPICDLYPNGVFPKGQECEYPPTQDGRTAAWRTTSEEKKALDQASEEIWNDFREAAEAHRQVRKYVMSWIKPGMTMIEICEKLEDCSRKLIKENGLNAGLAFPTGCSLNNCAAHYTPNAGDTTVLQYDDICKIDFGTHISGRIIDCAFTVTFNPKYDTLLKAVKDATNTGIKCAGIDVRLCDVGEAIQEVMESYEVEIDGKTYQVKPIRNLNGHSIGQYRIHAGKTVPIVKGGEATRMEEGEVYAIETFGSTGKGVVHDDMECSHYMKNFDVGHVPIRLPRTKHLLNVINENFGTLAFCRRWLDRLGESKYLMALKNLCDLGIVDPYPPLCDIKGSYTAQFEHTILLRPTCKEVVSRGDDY

[18] = molecular target: Tyrosine-protein kinase Mer (Homo sapiens, UniProt Q12866)
[19] = molecular target: Transient receptor potential cation channel subfamily A member 1 (Homo sapiens, UniProt O75762); test: Affinity Biochemical interaction (FLIPR-based Ca2+ assay (activated by 30 µM AITC)) EUB0000547a TRPA1; parameters: mode of action Negative control for A-079, recommended concentration 1 uM
[20] = molecular target: Ephrin type-B receptor 4 (Homo sapiens, UniProt P54760); test: Affinity Biochemical interaction (Microscale thermophoresis (MST) assay) EUB0000143b EPHB4; parameters: mode of action Inhibitor, recommended concentration 100 nM
[21] = molecular target: Protein ENL (Homo sapiens, UniProt Q03111); test: Affinity Biochemical interaction (AlphaScreen assay) EUB0000283b MLLT1; parameters: mode of action Inhibitor, recommended concentration 1 uM
[22] = molecular target: T2, Protein AF-9 (Homo sapiens, UniProt P42568); test: Affinity Biochemical interaction (AlphaScreen assay) EUB0000283b MLLT3; parameters: mode of action Inhibitor, recommended concentration 1 uM
T2 sequence (P42568 whole entry): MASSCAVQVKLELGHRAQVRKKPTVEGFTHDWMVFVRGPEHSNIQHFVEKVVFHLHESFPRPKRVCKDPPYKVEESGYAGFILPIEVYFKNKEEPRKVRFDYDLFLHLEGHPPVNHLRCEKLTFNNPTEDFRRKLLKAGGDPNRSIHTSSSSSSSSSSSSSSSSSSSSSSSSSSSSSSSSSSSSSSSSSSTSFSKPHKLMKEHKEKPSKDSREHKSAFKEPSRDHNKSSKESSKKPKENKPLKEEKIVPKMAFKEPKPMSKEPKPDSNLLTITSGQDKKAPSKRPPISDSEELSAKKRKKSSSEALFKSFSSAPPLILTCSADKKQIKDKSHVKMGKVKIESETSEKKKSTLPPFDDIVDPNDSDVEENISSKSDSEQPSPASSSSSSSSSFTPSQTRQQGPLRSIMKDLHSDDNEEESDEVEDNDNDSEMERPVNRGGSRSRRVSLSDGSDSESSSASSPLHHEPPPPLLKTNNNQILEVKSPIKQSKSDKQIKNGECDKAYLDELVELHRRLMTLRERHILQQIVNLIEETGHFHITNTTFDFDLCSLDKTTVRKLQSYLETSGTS

[23] = molecular target: 5'-AMP-activated protein kinase catalytic subunit alpha-1 (Homo sapiens, UniProt Q13131); test: Affinity Biochemical interaction (Biochemical PRKAA1 assay (10 µM ATP)) EUB0000707a PRKAA1; parameters: mode of action Negative control for BAY-3827, recommended concentration 100 nM
Chain of 5'-AMP-activated protein kinase catalytic subunit alpha-1 (Q13131 whole entry): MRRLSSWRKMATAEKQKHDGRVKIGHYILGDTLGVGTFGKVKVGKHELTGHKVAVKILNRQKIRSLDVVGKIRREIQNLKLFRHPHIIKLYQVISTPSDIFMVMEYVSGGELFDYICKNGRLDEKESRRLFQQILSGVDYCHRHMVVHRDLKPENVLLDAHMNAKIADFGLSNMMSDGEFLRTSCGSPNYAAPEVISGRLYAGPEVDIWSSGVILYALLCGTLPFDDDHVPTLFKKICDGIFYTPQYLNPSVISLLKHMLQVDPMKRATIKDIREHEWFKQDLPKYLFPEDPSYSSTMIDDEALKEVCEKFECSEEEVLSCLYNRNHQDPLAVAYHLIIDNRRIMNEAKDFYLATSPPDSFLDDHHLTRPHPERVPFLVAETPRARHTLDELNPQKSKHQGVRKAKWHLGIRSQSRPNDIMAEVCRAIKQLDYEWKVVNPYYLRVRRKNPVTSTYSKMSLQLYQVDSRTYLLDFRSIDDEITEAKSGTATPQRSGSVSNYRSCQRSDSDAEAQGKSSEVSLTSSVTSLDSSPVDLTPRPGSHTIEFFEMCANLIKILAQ

Compound: Cn1cncc1[C@](O)(COc1ccc(C#N)cc1-c1ccc(OC(F)(F)F)cc1)c1ccc(C#N)cc1 [ABT-100]
IC50 [1]: 0.05 nM

Compound: CCC(=O)N1CCOc2c(cc(-c3ccc(OC)c(OC)c3)cc2OC[C@H]2CCCN(C)C2)C1
Kd [2]: 625 nM

Compound: CC(=O)c1c(NS(C)(=O)=O)c2cc(-c3ccc(Cl)cc3)c(-c3ccc(Cl)cc3Cl)nc2n(C)c1=O [MRL-CB1-NC]
IC50 [3]: 32.5 nM

Compound: Cn1cc(-c2ccc3occ(-c4ccccc4-c4ccccc4)c3n2)cn1
Ki [4]: > 10000 nM
Ki [5]: > 10000 nM
Ki [6]: > 10000 nM

Compound: O=C(O)c1ccc(-c2coc3ncc(-c4ccccc4)cc23)cc1Cl
IC50 [7]: > 27000 nM

Compound: CCNC(=O)c1cc2c(N3CCOC[C@@H]3C)ccnc2n1C
IC50 [8]: > 20000 nM

Compound: O=C(Nc1ccc(-n2nc(-c3cccnc3)cc2C(F)(F)F)cn1)c1ccc(-c2ccccc2)c(F)c1 [BI 2049]
IC50 [9]: > 3000 nM

Compound: C[C@@H](c1cccc(CN)c1)n1cc(Cl)cc(C(N)=O)c1=N
Ki [10]: 1.6 nM

Compound: CN1CCN(Cc2cc(NC(=O)c3ccc4c(c3)CN(c3ccccc3)CC4)cc(C(F)(F)F)c2)CC1
IC50 [13]: 8100 nM
IC50 [14]: 1730 nM
IC50 [15]: > 10000 nM
IC50 [16]: 6250 nM

Compound: Cc1nc(N2CC[C@H](O)C2)ncc1-c1cc(C(F)(F)F)cc2[nH]ncc12
IC50 [17]: 7 nM

Compound: CCOc1cn(-c2ccc(F)cc2C)nc1C(=O)Nc1ccc(Oc2ccnc3cc(OC)c(OC)cc23)c(F)c1
IC50 [18]: 5 nM

Compound: Cc1ccc(C(=O)Nc2cccc(C(F)(F)F)c2)cc1Nc1nc(-c2cccnc2)nc2c1cnn2C
IC50 [20]: 6 nM

Compound: C[C@H]1CCCN1Cc1nc2cc(NC(=O)c3ccc4cnccc4c3)ccc2[nH]1
IC50 [21]: 150 nM
IC50 [22]: 254 nM

Second part, the compound after the results:

IC50 [11]: < 1 nM
Compound: CC1=C(C#N)C(c2ccc3[nH]nc(C)c3c2)C(C#N)=C(C)N1 [BAY-474]

IC50 [12]: > 10000 nM
Compound: CNC(=O)Nc1ccc2c(c1)[C@@]1(CC2)OC(=O)N(CC(=O)N(Cc2ccc(F)cc2)[C@@H](C)C(F)(F)F)C1=O [A-486]

IC50 [19]: > 100000 nM
Compound: CCC(=N\O)/C(C)=C/c1ccc(F)c(C)c1 [A-226]

IC50 [23]: > 20000 nM
Compound: CC1=C(C#N)C(c2ccc3c(c2)c(NC(=O)c2ccccc2C)nn3C)C(C#N)=C(C)N1 [BAY-974]
